Source: PubChem BioAssay AID212 (DTP/NCI, 2004)
Where “and” joins values, the source holds several entries; their conditions need not be identical. Identical values can stand only once. Records with an inconclusive call do not appear.

Tested on: BDF1 mice, colon carcinoma 38 sc, T/C %
Assay: NCI In Vivo Anticancer Drug Screen. Data for tumor model Colon Carcinoma 38 (subcutaneous) in B6D2F1 (BDF1) mice
Procedure, shortened: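 T/C readout: treated group (T) measurement over vehicle control group (C) measurement. Endpoint is survival or tumor size in mice bearing a transplanted tumor.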

[1] = endpoint: median tumor weight (est.), dose: 25.0 mg/kg/injection, schedule: Q07DX002 (ip), vehicle: Klucel (hydroxypropylcellulose) (HPC), higher = larger tumour
[2] = endpoint: median tumor weight (est.), dose: 50.0 mg/kg/injection, schedule: Q07DX002 (ip), vehicle: Klucel (hydroxypropylcellulose) (HPC), higher = larger tumour
[3] = endpoint: median tumor weight (est.), dose: 100.0 mg/kg/injection, schedule: Q07DX002 (ip), vehicle: Klucel (hydroxypropylcellulose) (HPC), higher = larger tumour
[4] = endpoint: median tumor weight (est.), dose: 200.0 mg/kg/injection, schedule: Q07DX002 (ip), vehicle: Klucel (hydroxypropylcellulose) (HPC), higher = larger tumour
[5] = endpoint: median tumor weight (est.), dose: 400.0 mg/kg/injection, schedule: Q07DX002 (ip), vehicle: Klucel (hydroxypropylcellulose) (HPC), higher = larger tumour

ClC1C(Cl)C(Cl)C(Cl)C(Cl)C1Cl (stereo not drawn)
T/C [1]: 103 % of control
T/C [2]: 88 % of control
T/C (endpoint: median tumor weight (est.), dose: 56.0 mg/kg/injection, schedule: Q07DX002 (ip), vehicle: saline with Tween-80, higher = larger tumour): 109 % of control and 95 % of control
T/C [3]: 71 % of control
T/C (endpoint: median tumor weight (est.), dose: 112.0 mg/kg/injection, schedule: Q07DX002 (ip), vehicle: saline with Tween-80, higher = larger tumour): 69 % of control and 82 % of control
T/C [4]: 113 % of control
T/C [5]: 118 % of control
T/C (endpoint: median tumor weight (est.), dose: 450.0 mg/kg/injection, schedule: Q07DX002 (ip), vehicle: saline with Tween-80, higher = larger tumour): 80 % of control and 85 % of control

Cc1ccc(C(=O)[O][Hg][CH2]C2COC([CH2][Hg][O]C(=O)c3ccc(C)cc3)CO2)cc1 (stereo not drawn)
T/C [1]: 186 % of control
T/C [2]: 177 % of control and 193 % of control
T/C [3]: 154 % of control and 209 % of control

CC(=O)Oc1ccc[nH]c1=O
T/C (endpoint: median tumor weight (est.), dose: 25.0 mg/kg/injection, schedule: Q07DX002 (ip), vehicle: saline with Tween-80, higher = larger tumour): 102 % of control
T/C (endpoint: median tumor weight (est.), dose: 25.0 mg/kg/injection, schedule: Q07DX003 (ip), vehicle: saline with Tween-80, higher = larger tumour): 101 % of control
T/C (endpoint: median tumor weight (est.), dose: 50.0 mg/kg/injection, schedule: Q07DX002 (ip), vehicle: saline with Tween-80, higher = larger tumour): 77 % of control
T/C (endpoint: median tumor weight (est.), dose: 50.0 mg/kg/injection, schedule: Q07DX003 (ip), vehicle: saline with Tween-80, higher = larger tumour): 70 % of control
T/C (endpoint: median tumor weight (est.), dose: 100.0 mg/kg/injection, schedule: Q07DX002 (ip), vehicle: saline with Tween-80, higher = larger tumour): 108 % of control and 92 % of control
T/C (endpoint: median tumor weight (est.), dose: 100.0 mg/kg/injection, schedule: Q07DX003 (ip), vehicle: saline with Tween-80, higher = larger tumour): 49 % of control
T/C (endpoint: median tumor weight (est.), dose: 200.0 mg/kg/injection, schedule: Q07DX002 (ip), vehicle: saline with Tween-80, higher = larger tumour): 114 % of control
T/C (endpoint: median tumor weight (est.), dose: 200.0 mg/kg/injection, schedule: Q07DX003 (ip), vehicle: saline with Tween-80, higher = larger tumour): 114 % of control
T/C (endpoint: median tumor weight (est.), dose: 400.0 mg/kg/injection, schedule: Q07DX003 (ip), vehicle: saline with Tween-80, higher = larger tumour): 83 % of control
T/C (endpoint: median tumor weight (est.), dose: 800.0 mg/kg/injection, schedule: Q07DX002 (ip), vehicle: saline with Tween-80, higher = larger tumour): 74 % of control and 75 % of control
T/C (endpoint: median tumor weight (est.), dose: 800.0 mg/kg/injection, schedule: Q07DX003 (ip), vehicle: saline with Tween-80, higher = larger tumour): 57 % of control

COc1ccc2c(NCCCCCCNc3c4ccccc4nc4cc(OC)ccc34)c3ccccc3nc2c1
T/C (endpoint: median tumor weight (est.), dose: 0.31 mg/kg/injection, schedule: Q07DX002 (ip), vehicle: lactic acid, higher = larger tumour): 54 % of control
T/C (endpoint: median tumor weight (est.), dose: 0.32 mg/kg/injection, schedule: Q07DX002 (ip), vehicle: lactic acid, higher = larger tumour): 72 % of control

C=C(C)C(=O)OC1C/C(CO)=C\C(O)C/C(C)=C/C2OC(=O)C(=C)C21 (stereo not drawn)
T/C (endpoint: median tumor weight (est.), dose: 2.5 mg/kg/injection, schedule: Q07DX002 (ip), vehicle: saline + alcohol, higher = larger tumour): 105 % of control
T/C (endpoint: median tumor weight (est.), dose: 5.0 mg/kg/injection, schedule: Q07DX002 (ip), vehicle: saline + alcohol, higher = larger tumour): 117 % of control
T/C (endpoint: median tumor weight (est.), dose: 20.0 mg/kg/injection, schedule: Q07DX002 (ip), vehicle: saline + alcohol, higher = larger tumour): 120 % of control
T/C (endpoint: median tumor weight (est.), dose: 40.0 mg/kg/injection, schedule: Q07DX002 (ip), vehicle: saline + alcohol, higher = larger tumour): 119 % of control

CCN(CC)CCNC(=O)Cc1cccc2c(=O)cc(-c3ccccc3)oc12
T/C [3]: 101 % of control
T/C [4]: 96 % of control
T/C [5]: 68 % of control

COc1cccc2c1C(=O)c1c(O)c3c(c(O)c1C2=O)CC(O)(C(=O)CO)CC3OC1CC(N)C(O)C(C)O1 (stereo not drawn)
T/C (endpoint: median survival time, dose: 41.0 mg/kg/injection, schedule: Q07DX002 (iv), vehicle: saline, higher = longer survival): 93 % of control
T/C (endpoint: median survival time, dose: 64.0 mg/kg/injection, schedule: Q07DX002 (iv), vehicle: saline, higher = longer survival): 104 % of control
T/C (endpoint: median survival time, dose: 100.0 mg/kg/injection, schedule: Q07DX002 (iv), vehicle: saline, higher = longer survival): 122 % of control
T/C (endpoint: median survival time, dose: 155.0 mg/kg/injection, schedule: Q07DX002 (iv), vehicle: saline, higher = longer survival): 124 % of control
T/C (endpoint: median tumor weight (est.), dose: 6.25 mg/kg/injection, schedule: Q07DX002 (ip), vehicle: water, higher = larger tumour): 110 % of control
T/C (endpoint: median tumor weight (est.), dose: 12.5 mg/kg/injection, schedule: Q07DX002 (ip), vehicle: water, higher = larger tumour): 100 % of control
T/C (endpoint: median tumor weight (est.), dose: 20.25 mg/kg/injection, schedule: Q07DX002 (ip), vehicle: saline, higher = larger tumour): 51 % of control
T/C (endpoint: median tumor weight (est.), dose: 25.0 mg/kg/injection, schedule: Q07DX002 (ip), vehicle: saline, higher = larger tumour): 81 % of control and 86 % of control
T/C (endpoint: median tumor weight (est.), dose: 25.0 mg/kg/injection, schedule: Q07DX002 (ip), vehicle: water, higher = larger tumour): 100 % of control
T/C (endpoint: median tumor weight (est.), dose: 40.5 mg/kg/injection, schedule: Q07DX002 (ip), vehicle: saline, higher = larger tumour): 123 % of control
T/C (endpoint: median tumor weight (est.), dose: 81.0 mg/kg/injection, schedule: Q07DX002 (ip), vehicle: saline, higher = larger tumour): 52 % of control
T/C (endpoint: median tumor weight (est.), dose: 81.0 mg/kg/injection, schedule: Q07DX002 (ip), vehicle: water, higher = larger tumour): 56 % of control
T/C (endpoint: median tumor weight (est.), dose: 100.0 mg/kg/injection, schedule: Q07DX002 (ip), vehicle: water, higher = larger tumour): 83 % of control
T/C (endpoint: median tumor weight (est.), dose: 162.0 mg/kg/injection, schedule: Q07DX002 (ip), vehicle: saline, higher = larger tumour): 44 % of control
T/C (endpoint: median tumor weight (est.), dose: 200.0 mg/kg/injection, schedule: Q07DX002 (ip), vehicle: saline, higher = larger tumour): 19 % of control
T/C (endpoint: median tumor weight (est.), dose: 200.0 mg/kg/injection, schedule: Q07DX002 (ip), vehicle: water, higher = larger tumour): 53 % of control
T/C (endpoint: median tumor weight (est.), dose: 324.0 mg/kg/injection, schedule: Q07DX002 (ip), vehicle: saline, higher = larger tumour): 14 % of control
